Assay results reported in patent US20230146455A1, “TREATMENT OF INFLAMMATORY DISEASES WITH PEPTIDES AND PHARMACEUTICAL COMPOSITIONS” (Yuyu Pharma, Inc., priority 2020, published 2023).
Where “and” joins values, the source holds several entries; their conditions need not be identical. Equal values may be shown once. Where a SMILES comes first, the peptide text is derived from it. [ ]: non-standard residue; d: D form. Hyp = O=C(O)[C@@H]1C[C@@H](O)CN1

How the values were obtained:
[1] = PBMC cell counts (total, live, viability; trypan blue, Countess) with and without LPS and test articles (Example 9); assay type: cell-based, human; conditions: human, PBMCs, 24 hr
Outline: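 Human PBMCs were pretreated 2 h with test articles (0.001–100 uM) or 0.5% DMSO vehicle, then given LPS at 5 ug/ml or no LPS, in triplicate. After 24 hr, total and live cells and viability were counted by 1:1 trypan blue staining on an automated counter.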

IL-1 beta/IL-1F2 = assay: Example 9 Luminex, LPS hPBMCs: IL-1 beta/IL-1F2; assay type: cell-based, human
Procedure: Treatment Human PBMCs were pretreated with YY-101, YDE-011 and YDE-043 or reference compound; Xiidra® at various concentration (ranging from 1 nM to 100 uM) for 2 h before stimulation. An equal volume of 0.5% DMSO was used as a vehicle control. Then, the cells were treated with LPS at 5 ug/ml. The supernatants from treated cells were harvested at 24 h and placed in a 96 well for Luminex cytokine & chemokine profiling using a Luminex 200 multiplex assay (Luminex; R&D system, USA).
The main study arm with triplicate wells per group in a 24-well plate: • 1. Blank • 2. PBMC: 0.5% DMSO • 3. PBMC+LPS (5 ug/ml) • 4. PBMC+YY-101 100 uM • 5. PBMC+YY-101 10 uM • 6. PBMC+YY-101 1 uM • 7. PBMC+YY-101 0.1 uM • 8. PBMC+YY-101 0.01 uM • 9. PBMC+LPS (5 ug/ml)+Xiidra®100 uM • 10. PBMC+LPS (5 ug/ml)+Xiidra® 10 uM • 11. PBMC+LPS (5 ug/ml)+Xiidra® 1 uM • 12. PBMC+LPS (5 ug/ml)+Xiidra®0.1 uM • 13. PBMC+LPS (5 ug/ml)+Xiidra®0.01 uM • 14. PBMC+LPS (5 ug/ml)+Xiidra®0.001 uM • 15. PBMC+LPS (5 ug/ml)+YY-101 100 uM • 16. PBMC+LPS (5 ug/ml)+YY-101 10 uM • 17. PBMC+LPS (5 ug/ml)+YY-101 1 uM • 18. PBMC+LPS (5 ug/ml)+YY-101 0.1 uM • 19. PBMC+LPS (5 ug/ml)+YY-101 0.01 uM • 20. PBMC+LPS (5 ug/ml)+YY-101 0.001 uM • 21. PBMC+LPS (5 ug/ml)+YDE-011 100 uM • 22. PBMC+LPS (5 ug/ml)+YDE-011 10 uM • 23. PBMC+LPS (5 ug/ml)+YDE-011 1 uM • 24. PBMC+LPS (5 ug/ml)+YDE-011 0.1 uM • 25. PBMC+LPS (5 ug/ml)+YDE-011 0.01 uM • 26. PBMC+LPS (5 ug/ml)+YDE-011 0.001 uM • 27. PBMC+LPS (5 ug/ml)+YDE-043 100 uM • 28. PBMC+LPS (5 ug/ml)+YDE-043 10 uM • 29. PBMC+LPS (5 ug/ml)+YDE-043 1 uM • 30. PBMC+LPS (5 ug/ml)+YDE-043 0.1 uM • 31. PBMC+LPS (5 ug/ml)+YDE-043 0.01 uM • 32. PBMC+LPS (5 ug/ml)+YDE-043 0.001 uM
Multiplex assay was used to measure 30 cytokines and chemokines. The 1:2, 1:10 and 1:200 diluted cell supernatant and serial dilution of the standard were dispensed into a 96 well plate at 50 ul/well. Then, the pre-mixed cocktail of antibody-coated magnetic beads was dispensed at 50 ul/well and incubated at room temperature for 2 h in a horizontal orbital microplate shaker at 800±500 rpm. The beads were washed using a magnetic device to prevent loss. The biotin-antibody was dispensed in 50 ul of each well and incubated at room temperature for 1 h in a shaker at 800±500 rpm. After washing, streptavidin-PE was added at 50 ul/well and incubated at room temperature for 30 min in a shaker under the same conditions. Finally, after washing, wash buffer (100 ul/well) was added to the plate and incubated in a shaker for 2 min. The Luminex™ 200 setting were set according to the manufacturer's protocol. The data was calculated with a standard five-parameter logistic nonlinear regression analysis of the data (xPonent software 4.2, USA). The levels of cytokine/chemokine are normalized to the live cell counts (1×10^5 cells/mL) and presented as concentrations per mL (pg/mL or ng/mL).

[2] = PBMC + LPS(5 ug/ml) + test article 0.001 uM, Mean
[3] = PBMC + LPS(5 ug/ml) + test article 0.001 uM, single replicates
[4] = PBMC + LPS(5 ug/ml) + test article 0.01 uM, Mean
[5] = PBMC + LPS(5 ug/ml) + test article 0.01 uM, single replicates
[6] = PBMC + LPS(5 ug/ml) + test article 0.1 uM, Mean
[7] = PBMC + LPS(5 ug/ml) + test article 0.1 uM, single replicates
[8] = PBMC + LPS(5 ug/ml) + test article 1 uM, Mean
[9] = PBMC + LPS(5 ug/ml) + test article 1 uM, single replicates
[10] = PBMC + LPS(5 ug/ml) + test article 10 uM, Mean
[11] = PBMC + LPS(5 ug/ml) + test article 10 uM, single replicates
[12] = PBMC + LPS(5 ug/ml) + test article 100 uM, Mean
[13] = PBMC + LPS(5 ug/ml) + test article 100 uM, single replicates
[14] = PBMC + test article 0.01 uM, no LPS, Mean
[15] = PBMC + test article 0.01 uM, no LPS, single replicates
[16] = PBMC + test article 0.1 uM, no LPS, Mean
[17] = PBMC + test article 0.1 uM, no LPS, single replicates
[18] = PBMC + test article 1 uM, no LPS, Mean
[19] = PBMC + test article 1 uM, no LPS, single replicates
[20] = PBMC + test article 10 uM, no LPS, Mean
[21] = PBMC + test article 10 uM, no LPS, single replicates
[22] = PBMC + test article 100 uM, no LPS, Mean
[23] = PBMC + test article 100 uM, no LPS, single replicates

Compound: CC(C)C[C@H](NC(=O)CNC(=O)[C@H](CC(=O)O)NC(=O)[C@H](CCC(N)=O)NC(=O)CNC(=O)[C@@H]1C[C@@H](O)CN1)C(=O)N[C@@H](C)C(=O)NCC(=O)N1CCC[C@H]1C(=O)N[C@@H](CCCCN)C(=O)O [YY-101] (H-[Hyp]GQDGLAGPK-OH; N-terminus and C-terminus assumed)
- viability at 24 h, 0.001 µM ([1]; PBMC + LPS(5 ug/ml) + compound 0.001 uM): 84.3 ± 2.6%
- viability at 24 h, 0.01 µM ([1]; PBMC + LPS(5 ug/ml) + compound 0.01 uM): 77.3 ± 5%
- viability at 24 h, 0.1 µM ([1]; PBMC + LPS(5 ug/ml) + compound 0.1 uM): 75.7 ± 4.7%
- viability at 24 h, 1 µM ([1]; PBMC + LPS(5 ug/ml) + compound 1 uM): 66.7 ± 5.8%
- viability at 24 h, 10 µM ([1]; PBMC + LPS(5 ug/ml) + compound 10 uM): 73.7 ± 4.8%
- viability at 24 h, 100 µM ([1]; PBMC + LPS(5 ug/ml) + compound 100 uM): 76.7 ± 5.2%
- viability at 24 h, 0.01 µM ([1]; PBMC + compound 0.01 uM, no LPS): 85 ± 2%
- viability at 24 h, 0.1 µM ([1]; PBMC + compound 0.1 uM, no LPS): 84%
- viability at 24 h, 1 µM ([1]; PBMC + compound 1 uM, no LPS): 89.5 ± 2.5%
- viability at 24 h, 10 µM ([1]; PBMC + compound 10 uM, no LPS): 86 ± 1%
- viability at 24 h, 100 µM ([1]; PBMC + compound 100 uM, no LPS): 86.5 ± 1.5%
- Concentration (IL-1 beta/IL-1F2; [2]): 7614.6 pg/mL
- MFI (IL-1 beta/IL-1F2; [2]): 1976.7
- conc/live cell (IL-1 beta/IL-1F2; [2]): 1188.6 pg/10^5
- Concentration (IL-1 beta/IL-1F2; [3]): 7907.5 pg/mL and 7935.5 pg/mL and 7000.7 pg/mL
- MFI (IL-1 beta/IL-1F2; [3]): 2055.5 and 2063.0 and 1811.5
- conc/live cell (IL-1 beta/IL-1F2; [3]): 1387.3 pg/10^5 and 1117.7 pg/10^5 and 1060.7 pg/10^5
- Concentration (IL-1 beta/IL-1F2; [4]): 8390.1 pg/mL
- MFI (IL-1 beta/IL-1F2; [4]): 2184.3
- conc/live cell (IL-1 beta/IL-1F2; [4]): 1361.7 pg/10^5
- Concentration (IL-1 beta/IL-1F2; [5]): 8405.7 pg/mL and 8552.3 pg/mL and 8212.4 pg/mL
- MFI (IL-1 beta/IL-1F2; [5]): 2188.5 and 2227.5 and 2137.0
- conc/live cell (IL-1 beta/IL-1F2; [5]): 1313.4 pg/10^5 and 1425.4 pg/10^5 and 1346.3 pg/10^5
- Concentration (IL-1 beta/IL-1F2; [6]): 8511.2 pg/mL
- MFI (IL-1 beta/IL-1F2; [6]): 2216.5
- conc/live cell (IL-1 beta/IL-1F2; [6]): 1463.1 pg/10^5
- Concentration (IL-1 beta/IL-1F2; [7]): 8266.8 pg/mL and 8740.8 pg/mL and 8526.0 pg/mL
- MFI (IL-1 beta/IL-1F2; [7]): 2151.5 and 2277.5 and 2220.5
- conc/live cell (IL-1 beta/IL-1F2; [7]): 1333.4 pg/10^5 and 1680.9 pg/10^5 and 1375.2 pg/10^5
- Concentration (IL-1 beta/IL-1F2; [8]): 7838.4 pg/mL
- MFI (IL-1 beta/IL-1F2; [8]): 2036.8
- conc/live cell (IL-1 beta/IL-1F2; [8]): 1203.9 pg/10^5
- Concentration (IL-1 beta/IL-1F2; [9]): 8218.0 pg/mL and 7821.7 pg/mL and 7475.4 pg/mL
- MFI (IL-1 beta/IL-1F2; [9]): 2138.5 and 2032.5 and 1939.5
- conc/live cell (IL-1 beta/IL-1F2; [9]): 1304.4 pg/10^5 and 1101.6 pg/10^5 and 1205.7 pg/10^5
- Concentration (IL-1 beta/IL-1F2; [10]): 8659.2 pg/mL
- MFI (IL-1 beta/IL-1F2; [10]): 2255.8
- conc/live cell (IL-1 beta/IL-1F2; [10]): 1311.5 pg/10^5
- Concentration (IL-1 beta/IL-1F2; [11]): 8518.5 pg/mL and 8816.3 pg/mL and 8642.7 pg/mL
- MFI (IL-1 beta/IL-1F2; [11]): 2218.5 and 2297.5 and 2251.5
- conc/live cell (IL-1 beta/IL-1F2; [11]): 1419.7 pg/10^5 and 1377.5 pg/10^5 and 1137.2 pg/10^5
- Concentration (IL-1 beta/IL-1F2; [12]): 12179.5 pg/mL
- MFI (IL-1 beta/IL-1F2; [12]): 3163.2
- conc/live cell (IL-1 beta/IL-1F2; [12]): 2105.8 pg/10^5
- Concentration (IL-1 beta/IL-1F2; [13]): 12944.3 pg/mL and 11783.1 pg/mL and 11811.0 pg/mL
- MFI (IL-1 beta/IL-1F2; [13]): 3353.5 and 3064.5 and 3071.5
- conc/live cell (IL-1 beta/IL-1F2; [13]): 2054.7 pg/10^5 and 1900.5 pg/10^5 and 2362.2 pg/10^5
- Concentration (IL-1 beta/IL-1F2; [14]): 5.5 pg/mL
- MFI (IL-1 beta/IL-1F2; [14]): 2.5
- conc/live cell (IL-1 beta/IL-1F2; [14]): 0.6 pg/10^5
- Concentration (IL-1 beta/IL-1F2; [15]): 5.5 pg/mL
- MFI (IL-1 beta/IL-1F2; [15]): 0.5 and 4.5
- conc/live cell (IL-1 beta/IL-1F2; [15]): 0.0 pg/10^5 and 1.2 pg/10^5
- MFI (IL-1 beta/IL-1F2; [16]): 1.5
- conc/live cell (IL-1 beta/IL-1F2; [16]): 0.0 pg/10^5
- MFI (IL-1 beta/IL-1F2; [17]): 1.5
- conc/live cell (IL-1 beta/IL-1F2; [17]): 0.0 pg/10^5
- MFI (IL-1 beta/IL-1F2; [18]): 2.0
- conc/live cell (IL-1 beta/IL-1F2; [18]): 0.0 pg/10^5
- MFI (IL-1 beta/IL-1F2; [19]): 3.5 and 0.5
- conc/live cell (IL-1 beta/IL-1F2; [19]): 0.0 pg/10^5
- Concentration (IL-1 beta/IL-1F2; [20]): 122.9 pg/mL
- MFI (IL-1 beta/IL-1F2; [20]): 13.0
- conc/live cell (IL-1 beta/IL-1F2; [20]): 9.6 pg/10^5
- Concentration (IL-1 beta/IL-1F2; [21]): 122.9 pg/mL
- MFI (IL-1 beta/IL-1F2; [21]): 23.5 and 2.5
- conc/live cell (IL-1 beta/IL-1F2; [21]): 19.2 pg/10^5 and 0.0 pg/10^5
- Concentration (IL-1 beta/IL-1F2; [22]): 159.6 pg/mL
- MFI (IL-1 beta/IL-1F2; [22]): 31.5
- conc/live cell (IL-1 beta/IL-1F2; [22]): 24.7 pg/10^5
- Concentration (IL-1 beta/IL-1F2; [23]): 278.4 pg/mL and 40.7 pg/mL
- MFI (IL-1 beta/IL-1F2; [23]): 53.5 and 9.5
- conc/live cell (IL-1 beta/IL-1F2; [23]): 43.5 pg/10^5 and 5.8 pg/10^5
- LPS-induced IL-I3 levels (in words) (IL-1 beta/IL-1F2; at 100.iM, LPS 5 ug/mL 24 hrs): further increased
